Patent US9241486B2, “Combination and methods for controlling turfgrass pests” (Bayer CropScience LP, priority 2012, dated 2016)

How the values were obtained:
Format in all cases: in vivo
[1] = system: Southern Chinch Bug (Blissus insularis); assay: Field plot trial on St. Augustine grass infested with Southern Chinch Bug, number of live bugs (Example 1); details: for Number of Chinch bugs 0 Days After Application / Number of Chinch bugs 4 Days After Application / Number of chinch bugs 7 Days After Application / Number of chinch bugs 18 Days After Application: spray, 40 gallons water per acre, spirotetramat 111 g/ha, azadirachtin 222 g/ha, imidacloprid + azadirachtin 111 + 222 g/ha; for Control of Southern chinch bugs (in words): Example 1, summary of Table 1
Description: Plots approximately 6 feet by 10 feet with three replicates and planted with St. Augustine grass are infested with the Southern Chinch Bug (Blissus insularis). Using a sprayer (research back pack sprayers), Spirotetramat (MOVENTO 240 SC) on its own, azadirachtin (AZATIN XL) on its own, and a mixture of imidacloprid (MERIT 240 SC) and azadirachtin, are applied at the application rates specified. The water application rate is 40 gallons per acre. The evaluation is performed 0 days, 4 days, 7 days, and 18 days after the treatment by determining the number of live Southern Chinch Bugs.

[2] = system: Southern Chinch Bug (Blissus insularis); assay: Field plot trial on St. Augustine grass infected with Southern chinch bug, number of chinch bugs (Example 2); details: for Number of chinch bugs at 0 Days / Number of chinch bugs at 5 days / Number of chinch bugs at 13 days / Number of chinch bugs at 29 days / Number of chinch bugs at 41 days / Number of chinch bugs at 58 days: Allectus 1083 g ai/ha total, imidacloprid 448.8 g ai/ha, spirotetramat 175.8 g ai/ha, mixture 175.8 + 448.8 g ai/ha; for Number of chinch bugs at 5 days: 5 days after treatment; for Number of chinch bugs at 13 days: 13 days after treatment; for Number of chinch bugs at 29 days: 29 days after treatment; for Number of chinch bugs at 41 days: 41 days after treatment; for Number of chinch bugs at 58 days: 58 days after treatment; for Control of Southern chinch bugs (in words): Example 2, summary of Table 2, up to 58 days after treatment
From the text: (§1) Plots approximately 30 ft by 10 ft with 3 replicates and planted with St. Augustine grass are infected with Southern chinch bug (Blissus insularis). Using a pneumatic sprayer, a mixture of the spirotetramat (MOVENTO 240 SC) and imidacloprid (MERIT 240 SC) is applied in comparision to the spirotetramat (MOVENTO 240 SC) on its own, the imidacloprid (MERIT 240 SC) on its own, and the gold standard Pyrethrin treatment ALLECTUS™ (imidacloprid+bifenthrin), at the application rates specified. The water application rate is 40 gallons per acre. The evaluation is performed 0 days, 5 days, 13 days, 29 days, 41 days, and 58 days after the treatment by determining the number of chinch bugs and the chlorophyll content of the grass. The higher the chlorophyll content of the grass, the greener and lusher the grass is.

St. Augustine grass = assay: Chlorophyll content of St. Augustine grass infected with Southern chinch bug (Example 2); details: Allectus 1083 g ai/ha total, imidacloprid 448.8 g ai/ha, spirotetramat 175.8 g ai/ha, mixture 175.8 + 448.8 g ai/ha; for Chlorophyll Content 5 days: 5 days after treatment; for Chlorophyll Content 13 days: 13 days after treatment; for Chlorophyll Content 41 days: 41 days after treatment; for Chlorophyll Content 58 days: 58 days after treatment
From the text: as §1

Compound	Number of Chinch bugs 0 Days After Application [1]	Number of Chinch bugs 4 Days After Application [1]	Number of chinch bugs 7 Days After Application [1]	Number of chinch bugs 18 Days After Application [1]	Control of Southern chinch bugs (in words) [1]	Number of chinch bugs at 0 Days [2]	Number of chinch bugs at 5 days [2]	Number of chinch bugs at 13 days [2]	Number of chinch bugs at 29 days [2]	Number of chinch bugs at 41 days [2]	Number of chinch bugs at 58 days [2]	Control of Southern chinch bugs (in words) [2]	Chlorophyll Content 5 days (St. Augustine grass)	Chlorophyll Content 13 days (St. Augustine grass)	Chlorophyll Content 41 days (St. Augustine grass)	Chlorophyll Content 58 days (St. Augustine grass)
C/C=C(\C)C(=O)O[C@H]1C[C@@H](OC(C)=O)[C@@]2(C(=O)OC)CO[C@H]3[C@@H](O)[C@@](C)([C@]45O[C@@]4(C)[C@H]4C[C@@H]5O[C@@H]5OC=C[C@@]54O)[C@H]4[C@]1(CO[C@]4(O)C(=O)OC)[C@@H]32 [Azadirachtin, azadirachtin]	12	15	5	11	–	–	–	–	–	–	–	–	–	–	–	–
O=[N+]([O-])/N=C1\NCCN1Cc1ccc(Cl)nc1 [Imidacloprid, imidacloprid]	–	–	–	–	none of the compounds provided good control	50	19	41	30	65	9	neither spirotetramat or imidacloprid alone provided good control	2.733	3.215	3.185	3.250
CCOC(=O)OC1=C(c2cc(C)ccc2C)C(=O)N[C@]12CC[C@@H](OC)CC2 [Spirotetramat]	6	12	6	10	none of the compounds provided good control	50	45	73	45	83	26	neither spirotetramat or imidacloprid alone provided good control	3.338	3.250	2.292	2.149
